{"source": "paper PMC10629583", "about": "“Specific inhibition of an anticancer target, polo-like kinase 1, by allosterically dismantling its mechanism of substrate recognition” (Proceedings of the National Academy of Sciences of the …, 2023)", "key": {"[1]": {"target": "T1, Plk3 PBD (PBD3) (Homo sapiens, UniProt Q9H4B4)", "T1 construct": "MBP-PBD3-His (335–646) (pKM3359) and its A612F (pKM7981); His (C); made in house; host or cells: bacteria (E. coli)", "T1 sequence (Q9H4B4 335-646)": "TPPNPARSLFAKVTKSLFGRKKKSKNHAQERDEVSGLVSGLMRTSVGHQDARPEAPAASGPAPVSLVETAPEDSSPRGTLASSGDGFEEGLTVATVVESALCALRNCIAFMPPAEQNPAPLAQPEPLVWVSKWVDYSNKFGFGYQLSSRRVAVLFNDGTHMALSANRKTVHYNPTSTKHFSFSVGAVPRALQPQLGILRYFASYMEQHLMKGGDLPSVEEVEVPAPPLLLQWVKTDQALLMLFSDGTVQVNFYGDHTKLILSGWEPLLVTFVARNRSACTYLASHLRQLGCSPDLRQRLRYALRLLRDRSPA", "experiment": "FP-based inhibition assay, PBD3", "format": "binding", "conditions": "bacterially expressed purified PBD, FITC-ligand 15 nM, PBD at EC85", "protocol": "FP assays were carried out essentially as described previously ([35], [36]). FITC-conjugated ligands (15 nM) were mixed with PBDs at their EC85 concentrations. All the samples were analyzed approximately 30 min after reaction in a 384-well format using the SpectraMax Paradigm multimode microplate detection platform (Molecular Devices). Data were analyzed after carrying out at least three independent experiments using GraphPad Prism software version 8."}, "[2]": {"system": "Flag-Plk1 interactions with p-PBIP1, Bub1, BubR1, Cdc25C", "experiment": "Coimmunoprecipitation, HeLa cells expressing Flag-Plk1", "format": "cell-based", "conditions": "20 μM for 2 h, nocodazole + okadaic acid", "protocol": "(§1) For coimmunoprecipitation analyses shown in Figs. 1C and 4F, HeLa cells stably expressing PCMV-Flag-Plk1 WT (pKM3863) (Fig. 1C) and its respective F559D mutant (pKM7979) (Fig. 4F) were generated using a lentiviral expression system. Prior to harvest, the cells were treated with 600 nM of nocodazole and 300 nM of okadaic acid (OA) for 16 h and 1.5 h, respectively, to enrich the level of phosphorylated proteins and additionally treated with either control DMSO or 20 μM of Allopole for 2 h. Immunoprecipitation was carried out essentially as described previously ([49]) in TBSN buffer [20 mM Tris–Cl (pH 8.0), 150 mM NaCl, 0.5% NP-40, 5 mM EGTA, 2 mM MgCl2, 1.5 mM EDTA, 2 mM DTT, 20 mM p-nitrophenyl phosphate (PNPP), and protease inhibitor cocktail (Roche)] using anti-Flag antibody (Sigma-Aldrich). Immunoprecipitates were separated by sodium dodecyl sulfate–polyacrylamide gel electrophoresis (SDS-PAGE) and then immunoblotted according to standard procedures using an enhanced chemiluminescence detection system (Thermo Fisher Scientific). The antibodies that were used to detect specific indicated proteins in Fig. 1C are listed in SI Appendix, Table S6."}, "[3]": {"system": "Flag-Plk1 F559D interactions with p-PBIP1, p-Bub1, p-BubR1, p-Cdc25C", "experiment": "Coimmunoprecipitation, HeLa cells expressing Flag-Plk1 F559D", "format": "cell-based", "conditions": "20 μM for 2 h, nocodazole + okadaic acid", "protocol": "as §1"}, "[4]": {"system": "HeLa cells", "experiment": "Time-lapse analysis of double thymidine-released HeLa cells", "format": "cell-based", "conditions": "HeLa released from double-thymidine block, 10 μM added 7 h after release", "protocol": "To carry out time-lapse analysis, HeLa cells were arrested at the G1/S boundary by treating them with 2.5 mM of thymidine for 18 h, releasing them for 9 h, and then treating them again with the same dose of thymidine for another 18 h. The resulting cells were washed with fresh medium, released from the double-thymidine block for 7 h, and then treated with control DMSO or 10 μM of Allopole to examine their effect on cell cycle progression. At the indicated time points, cells were imaged every 30 min using a Keyence BZ-X710 all-in-one microscope."}, "[5]": {"system": "mGFP-Plk1 WT at centrosomes, U2OS cells", "experiment": "Confocal quantification of Pendo-mGFP-Plk1 WT in U2OS cells (siPlk1)", "format": "cell-based", "conditions": "U2OS siPlk1, 8 μM", "protocol": "To corroborate the importance of the F559 residue for Allopole-A binding, U2OS cells expressing endogenous promoter (i.e., Pendo)-controlled mGFP-Plk1 WT or F559D mutant were depleted of endogenous Plk1 by RNAi for 48 h (SI Appendix, Fig. S4C), treated with control DMSO or 8 μM of Allopole for 2 or 16 h, and fixed (SI Appendix, Fig. S4D). Afterward, the level of mGFP fluorescence was quantified using confocal microscopy (Fig. 4 C and D). As expected from the results shown in Fig. 1 C and D, Allopole delocalized mGFP-Plk1 WT from centrosomes within 2 h after treatment, and this effect was sustained for up to 16 h. […] This could be attributable to the fact that unlike PBIP1, which binds to PBD1 through the self-priming and binding mechanism ([49]), Bub1, BubR1, and likely Cdc25C require Cdc2-dependent priming phosphorylation to interact with PBD1 ([42]–[44]). […]\nConfocal images of unsaturated fluorescence signals were acquired under the same laser intensity at the 12-bit resolution. Fluorescence intensities for identifiable centrosome and kinetochore signals were quantified after the maximum-intensity projection of z-stacks using the Zeiss ZEN v2.1 software (Carl Zeiss Microscopy, LLC). Data were quantified from three independent experiments."}, "[6]": {"system": "U2OS cells expressing Pendo-mGFP-Plk1 WT", "experiment": "MTS proliferation assay, U2OS Plk1 RNAi cells expressing WT Plk1", "format": "cell-based", "conditions": "WT Plk1, 3 to 6 μM, 36 h", "protocol": "Cell viability was determined using the […] CellTiter 96® AQueous One Solution Cell Proliferation Assay (MTS) kit (Promega) containing a tetrazolium compound [3-(4,5-dimethylthiazol-2-yl)-5-(3-carboxymethoxy-phenyl)-2-(4-sulfophenyl)-2H-tetrazolium, inner salt (MTS)] and an electron-coupling phenazine ethosulfate. For the MTS assays in Fig. 1B, L363 cells cultured in a 96-well plate were treated with the indicated compounds for 48 h (the final volume of 100 μL). After the compound treatment, cells were additionally treated with 20 μL of the MTS solution and incubated at 37 °C for 2 to 4 h in a humidified 5% CO2 atmosphere. The absorbance of the resulting sample was measured at 490 nm using a PerkinElmer EnSpire Multimode 96-well plate reader. For the MTS assays in Fig. 4E, U2OS cells stably expressing either Pendo-mGFP-Plk1 WT or F559D were seeded at approximately 5,000 cells/well in a 96-well plate, depleted of endogenous Plk1 by RNAi, and then treated with either control DMSO or Allopole as indicated in the schematic diagram in SI Appendix, Fig. S4E."}}, "data": [{"compound": "O=c1c2sc(Cl)cc2n2c(=S)[nH]nc2n1CC1CC1", "note": "[Allopole-A]", "values": [{"measurement": "PBD3 IC50 ± SD", "setting": "[1]", "value": "N. S."}]}, {"compound": "Cn1cnc([N+](=O)[O-])c1Sc1nnc2n(CC3CC3)c(=O)c3sc(Cl)cc3n12", "note": "[Allopole]", "values": [{"measurement": "Phosphoproteins coprecipitating with Flag-Plk1 (in words)", "setting": "[2]", "value": "greatly diminished the amounts of these proteins coprecipitating with Plk1"}, {"measurement": "Phosphoproteins coprecipitating with Flag-Plk1 F559D (in words)", "setting": "[3]", "value": "coimmunoprecipitated p-PBIP1, p-Bub1, p-BubR1, and p-Cdc25C effectively"}, {"measurement": "Mitotic progression (in words)", "setting": "[4]", "value": "effectively blocked mitotic progression for several hours and induced cell death"}, {"measurement": "Time to delocalization of mGFP-Plk1 WT from centrosomes", "setting": "[5]", "value": "≤ 2", "unit": "h"}, {"measurement": "Proliferation rate (in words)", "setting": "[6]", "value": "significant reduction in their proliferation rate"}]}]}
